Consider 16 compounds from PubChem BioAssay (NCI).

Several values for one entry are separate records, joined by “and”; a condition that tells them apart may be missing. Identical values can stand only once.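 Compound exposure: 48 hours, 5 concentrations, 96-well plates. GI50 = concentration required for 50% inhibition of growth. TGI: concentration producing complete growth inhibition.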

Some test systems named below: A498 renal; HT29 colon; MDA-MB-435; MOLT-4 leukemia; OVCAR-8 ovarian; RPMI-8226 leukemia; SF-295 CNS; SNB-19 CNS; UO-31 renal; DU-145 prostate; HL-60(TB) leukemia.
Holding throughout (experiment): NCI-60 cell line screen, 48 h

Consider `O=C1C2CCCCC2C(=O)N1n1c(Cc2ccc(Cl)cc2)n[nH]c1=O` (stereo unspecified), for which the TGI in the assay on A498 renal, in the assay on HT29 colon, in the assay on MDA-MB-435, in the assay on MOLT-4 leukemia, in the assay with OVCAR-8 ovarian and in the assay with RPMI-8226 leukemia was above 100 µM each time. For the same compound, the TGI in the assay on SF-295 CNS, in the assay with SNB-19 CNS and in the assay with UO-31 renal was above 100 µM each time.
As to `COC(=O)c1cn(CCCC(=O)O)nn1`, the TGI in the assay on DU-145 prostate, in the assay on HT29 colon, in the assay with MDA-MB-435, in the assay on MOLT-4 leukemia, in the assay with OVCAR-8 ovarian and in the assay on SF-295 CNS was above 100 µM throughout. Besides, the TGI in the assay on SNB-19 CNS and in the assay with UO-31 renal was above 100 µM throughout.
Consider `C/C=C/[C@@]1(OC(=O)c2ccccc2)C[C@@H]2CCCC[C@@H]21`, for which the TGI in the assay on DU-145 prostate turned out to be 31.4 µM; in the assay on HL-60(TB) leukemia, 30.9 µM; in the assay on HT29 colon it was 31.7 µM; with MOLT-4 leukemia, 40.2 µM; in the assay on OVCAR-8 ovarian, 34.7 µM; with RPMI-8226 leukemia, 38.5 µM. Also, the TGI in the assay with SF-295 CNS was determined as 33.3 µM; in the assay on SNB-19 CNS, 31.6 µM; in the assay on UO-31 renal, 22.9 µM.
Consider `O=C(O)CCCl`, for which the TGI with HL-60(TB) leukemia, in the assay with HT29 colon, in the assay with MOLT-4 leukemia, in the assay on OVCAR-8 ovarian, in the assay on RPMI-8226 leukemia and in the assay with SF-295 CNS was above 5000 µM in each case. Besides, in the assay on UO-31 renal, the TGI was above 5000 µM.
Regarding `O=C(CSc1nnc(-c2ccc(N=Cc3ccc(Cl)cc3)cc2)o1)Nc1ccccc1Cl`, the TGI in the assay with HL-60(TB) leukemia, with HT29 colon, in the assay on MOLT-4 leukemia, in the assay with OVCAR-8 ovarian, with RPMI-8226 leukemia and in the assay with SF-295 CNS was above 100 µM throughout. For the same compound, the TGI in the assay on SNB-19 CNS and in the assay with UO-31 renal was above 100 µM each time.
On to `O=C(Nc1c(O)[nH]c(=S)[nH]c1=O)c1ccccn1`, for which the TGI in the assay with A498 renal, in the assay on HL-60(TB) leukemia, in the assay on HT29 colon, in the assay on MOLT-4 leukemia, in the assay with OVCAR-8 ovarian and with RPMI-8226 leukemia was above 100 µM in each case. The TGI with SF-295 CNS, with SNB-19 CNS and in the assay with UO-31 renal was above 100 µM throughout.
Turning to `COc1cccc2c1OC1c3ccccc3OCC1C2` (stereo unspecified), the TGI with A498 renal, with DU-145 prostate, with HT29 colon, in the assay on MDA-MB-435, in the assay with MOLT-4 leukemia and in the assay with OVCAR-8 ovarian was above 100 µM in each case. Moreover, the TGI with RPMI-8226 leukemia, in the assay with SF-295 CNS and in the assay with UO-31 renal was above 100 µM throughout.
In the case of `CCC(C)[C@@H](NCc1ccccc1)[C@H](OCc1ccccc1)[C@@H]1COC(C)(C)O1` (stereo partly specified), the TGI in the assay with DU-145 prostate is 68 µM; with HT29 colon, 23.7 µM; with MDA-MB-435, above 100 µM; in the assay with MOLT-4 leukemia, 62.3 µM; in the assay with OVCAR-8 ovarian, 45.4 µM; with RPMI-8226 leukemia, 36.1 µM. The TGI with SF-295 CNS was determined as 60.2 µM; in the assay on SNB-19 CNS, 57.3 µM; in the assay with UO-31 renal, 41.3 µM.
Turning to `C1OCC2S[C@@H]3COCO[C@@H]3C2O1` (stereo partly specified), the TGI in the assay with A498 renal, with HL-60(TB) leukemia, with HT29 colon, in the assay on MOLT-4 leukemia, with OVCAR-8 ovarian and with RPMI-8226 leukemia was above 100 µM each time. The TGI in the assay with SF-295 CNS, with SNB-19 CNS and in the assay with UO-31 renal was above 100 µM in each case.
With `S=c1sc2c(Cl)ncnc2n1-c1ccccc1`, the TGI came out at 30.9 µM in the assay with A498 renal; 24.1 µM in the assay on HT29 colon; 56.1 µM with MOLT-4 leukemia; 31.6 µM in the assay on OVCAR-8 ovarian; 56.7 µM in the assay with RPMI-8226 leukemia; 25.5 µM with SF-295 CNS. The values for the TGI in the assay on SNB-19 CNS and in the assay on UO-31 renal were 32.9 µM and 32.7 µM, respectively.
Regarding `C=C1C(=O)OC2/C=C(\C)C(OC(C)=O)C3OC3C(C)(O)CC(OC(=O)/C(C)=C/C)C12` (stereo unspecified), the TGI is 32.1 µM in the assay with A498 renal; 5.81 µM with HL-60(TB) leukemia; 32.7 µM in the assay on HT29 colon; 85.6 µM in the assay on MOLT-4 leukemia; 24.4 µM in the assay with OVCAR-8 ovarian; 28.2 µM in the assay with RPMI-8226 leukemia. Also, the TGI with SF-295 CNS is 42.4 µM; in the assay on SNB-19 CNS, 33.7 µM; with UO-31 renal, 23 µM.
With `CCC1(O)CC(OC2CC(N(C)C)C(OC3CC4OC5CC(=O)C(C)OC5OC4C(C)O3)C(C)O2)c2c(cc3c(c2O)C(=O)c2c(O)ccc(O)c2C3=O)C1C(=O)OC` (stereo unspecified), in the assay on A498 renal, the GI50 is 0.00459 µM. The TGI is 0.016 µM with A498 renal; 0.117 µM and 0.245 µM and 1.17 µM in the assay with SNB-19 CNS.
With `CCOC(=O)CCCn1nnc(C(=O)OCC)c1C(=O)OCC`, the TGI in the assay with DU-145 prostate, in the assay with HT29 colon, with MDA-MB-435, in the assay on MOLT-4 leukemia, with OVCAR-8 ovarian and in the assay on SF-295 CNS was above 100 µM in each case. In addition, the TGI in the assay with SNB-19 CNS and in the assay with UO-31 renal was above 100 µM each time.
As for `O=C1c2ccccc2C(=O)N1n1c(Cc2ccccc2)n[nH]c1=O`, the TGI in the assay on A498 renal, in the assay on DU-145 prostate, with HT29 colon, in the assay with MDA-MB-435, in the assay on MOLT-4 leukemia and in the assay with OVCAR-8 ovarian was above 100 µM in each case. Besides, the TGI in the assay on SF-295 CNS, in the assay with SNB-19 CNS and in the assay with UO-31 renal was above 100 µM each time.
Regarding `C1CC2=C(C1)[Se]C(=C1Sc3nsnc3S1)[Se]2`, the TGI in the assay with DU-145 prostate, in the assay with HT29 colon, with MDA-MB-435, with MOLT-4 leukemia, in the assay with OVCAR-8 ovarian and in the assay with RPMI-8226 leukemia was above 100 µM each time. The TGI in the assay on SF-295 CNS, in the assay with SNB-19 CNS and in the assay with UO-31 renal was above 100 µM throughout.
Take `Nc1nc(N)c2ncn(CC3CCC(CO)C3)c2n1` (stereo unspecified): the TGI in the assay on A498 renal, in the assay on DU-145 prostate, in the assay with MDA-MB-435, with MOLT-4 leukemia, with RPMI-8226 leukemia and in the assay with SF-295 CNS was above 100 µM in each case. Also, the TGI in the assay on SNB-19 CNS and in the assay with UO-31 renal was above 100 µM each time.
